Assay results from PubChem BioAssay AID1259246 (Broad Institute, 2017).
Records with an inconclusive call do not appear. The source made the active and inactive calls.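 How the source made its calls: active means valid dose-response fit whose half-maximal growth-inhibiting concentration is at or below a set limit above the top tested dose; inconclusive means flat fit with effect between 30 and 70%, or poor fit; inactive means half-maximal concentration above a set limit.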

Test: antibacterial activity against Clostridioides difficile – 10-point retest, dose response (AID 1259246)
Details: Clostridioides difficile clinical isolate growth, OD600, 24 h

SMILES	activity change, negative = inhibition (at 120 µM (top of the series))	also measured
COc1ccccc1CNC(=O)C[C@H]1C[C@H]2c3cc(NC(=O)NC4CCCC4)ccc3O[C@H]2[C@H](CO)O1		activity change, negative = inhibition (at 60 µM (top of the series)): -5.15% (inactive)
COc1ccc(NC(=O)Nc2cccc3c2O[C@@H](CN(C)Cc2ccc(Oc4ccccc4)cc2)[C@@H](C)CN([C@@H](C)CO)C3=O)cc1	30.5% (inactive)	
O=C(N[C@H]1CC[C@H](CCNS(=O)(=O)Cc2ccccc2)O[C@H]1CO)c1cnccn1	-2.56% (inactive)	
CC(C)CC#Cc1ccc2c(c1)O[C@@H](CN(C)CC1CCOCC1)[C@H](C)CN([C@@H](C)CO)S2(=O)=O	13.6% (inactive)	
CC(C)CC#Cc1ccc2c(c1)O[C@H](CN(C)Cc1ccc3c(c1)OCO3)[C@@H](C)CN([C@@H](C)CO)S2(=O)=O	21.9% (inactive)	
C[C@@H]1CN([C@@H](C)CO)C(=O)c2cccc(NC(=O)Nc3ccc(C(F)(F)F)cc3)c2O[C@H]1CN(C)S(=O)(=O)c1ccc(Cl)cc1	50.7% (inactive)	activity change, negative = inhibition (at 68 µM (top of the series)): 12.7% (inactive)
Cc1ccc(S(=O)(=O)N[C@@H]2CC[C@@H](CCNS(=O)(=O)Cc3ccccc3)O[C@@H]2CO)cc1	-1.17% (inactive)	
C[C@@H]1CN([C@@H](C)CO)C(=O)c2cccc(NC(=O)Nc3ccccc3)c2O[C@H]1CN(C)Cc1ccc(Oc2ccccc2)cc1	26.1% (inactive)	
O=C(C[C@H]1C[C@@H]2c3cc(NC(=O)C4CCC4)ccc3O[C@@H]2[C@@H](CO)O1)NCCc1ccccc1		activity change, negative = inhibition (at 60 µM (top of the series)): 0.211% (inactive)
C[C@H]1CN([C@@H](C)CO)C(=O)c2cccc(NC(=O)Nc3ccc4c(c3)OCO4)c2O[C@H]1CN(C)Cc1ccc(-c2ccccc2)cc1		activity change, negative = inhibition (at 135 µM (top of the series)): 24.8% (inactive)
C[C@@H]1CN([C@H](C)CO)C(=O)Cc2cc(NC(=O)C3CCCCC3)ccc2O[C@@H]1CN(C)Cc1ccc(-c2ccccc2)cc1	25.3% (inactive)	
CNC[C@H]1OCCCC[C@H](C)Oc2ccc(NC(=O)Nc3cccc4ccccc34)cc2C(=O)N([C@H](C)CO)C[C@@H]1C	11.4% (inactive)	
C[C@@H]1CN([C@H](C)CO)C(=O)Cc2cc(NC(=O)CCCN(C)C)ccc2O[C@@H]1CN(C)Cc1ccc(-c2ccccc2)cc1		activity change, negative = inhibition (at 60 µM (top of the series)): 28.6% (inactive)
C[C@@H]1CN([C@@H](C)CO)C(=O)c2cccc(NC(=O)Nc3ccc(C(F)(F)F)cc3)c2O[C@H]1CN(C)Cc1ccc(-c2ccccc2)cc1	20.3% (inactive)	
C[C@@H]1CN([C@@H](C)CO)C(=O)c2cc(NC(=O)Nc3cccc4ccccc34)ccc2O[C@@H](C)CCCCO[C@H]1CN(C)S(=O)(=O)c1ccc(F)cc1	34.1% (inactive)	
C[C@@H]1CN([C@H](C)CO)C(=O)c2cccc(NC(=O)Nc3ccc(C(F)(F)F)cc3)c2O[C@@H]1CN(C)C(=O)Nc1ccc(F)cc1	-4.05% (inactive)	
C[C@H]1CN([C@@H](C)CO)C(=O)c2cccc(NC(=O)Nc3ccccc3)c2O[C@@H]1CN(C)Cc1ccc(Oc2ccccc2)cc1	27.9% (inactive)	
COc1ccccc1CNC(=O)C[C@H]1C[C@@H]2c3cc(NC(=O)NC4CCCC4)ccc3O[C@@H]2[C@@H](CO)O1	-0.476% (inactive)	
COc1ccc(S(=O)(=O)N(C)C[C@H]2Oc3c(NC(=O)Nc4ccc5c(c4)OCO5)cccc3C(=O)N([C@@H](C)CO)C[C@H]2C)cc1	11.1% (inactive)	

SMILES	activity change, negative = inhibition (at 120 µM (top of the series))	also measured
Cc1ccc(S(=O)(=O)N[C@@H]2CC[C@@H](CCNS(=O)(=O)Cc3ccccc3)O[C@H]2CO)cc1	-1.85% (inactive)	
O=C(N[C@H]1CC[C@H](CCNS(=O)(=O)c2ccc(Cl)cc2)O[C@H]1CO)c1cnccn1	-7.94% (inactive)	
COc1cccc(NC(=O)N(C)C[C@@H]2Oc3cc(/C=C/c4ccccc4)ccc3S(=O)(=O)N([C@@H](C)CO)C[C@H]2C)c1	19.6% (inactive)	
CC(C)C#Cc1ccc2c(c1)O[C@@H](CN(C)Cc1cccnc1)[C@H](C)CN([C@H](C)CO)S2(=O)=O	27.7% (inactive)	
C[C@H](CO)N1C[C@H](C)[C@@H](CN(C)S(C)(=O)=O)OCCCC[C@H](C)Oc2ccc(NC(=O)Nc3cccc4ccccc34)cc2C1=O		activity change, negative = inhibition (at 60 µM (top of the series)): 9.57% (inactive)
CO[C@@H]1CN(C)C(=O)c2ccc(NC(=O)c3nc4ccccc4s3)cc2OC[C@H](C)N(Cc2ccncc2)C[C@H]1C	7.34% (inactive)	
COC(=O)[C@@H]1[C@@H](CO)[C@@H]2Cn3c(ccc(-c4cccc(F)c4)c3=O)[C@@H]2N1C(C)=O		activity change, negative = inhibition (at 60 µM (top of the series)): 9.82% (inactive)
CO[C@H]1CN(C)C(=O)c2cc(NC(=O)Nc3ccc4c(c3)OCO4)ccc2OC[C@H](C)NC[C@H]1C	-6.51% (inactive)	
Cc1ccc(-c2ccc3c(c2)O[C@H](CN(C)Cc2ccncc2)[C@@H](C)CN([C@H](C)CO)S3(=O)=O)cc1	22.9% (inactive)	
C[C@H](CO)N1C[C@H](C)[C@@H](CN(C)C(=O)Nc2ccccc2)OCCCC[C@H](C)Oc2ccc(NC(=O)Nc3cccc4ccccc34)cc2C1=O	20.2% (inactive)	
CO[C@H]1CN(C)C(=O)c2cc(NC(=O)c3nc4ccccc4s3)ccc2OC[C@H](C)NC[C@H]1C		activity change, negative = inhibition (at 135 µM (top of the series)): -0.247% (inactive)
N#C[C@H]1[C@H](c2ccc(C#Cc3ccccc3F)cc2)[C@@H](CO)N1C(=O)C1CCCCC1	24.9% (inactive)	
Cc1ccc(S(=O)(=O)N2C[C@@H](O)COC[C@H]3O[C@H](CC(=O)NCc4ccccc4Cl)CC[C@@H]32)cc1	13.4% (inactive)	
O=C(C[C@H]1C[C@H]2c3cc(NS(=O)(=O)c4ccc(F)cc4)ccc3O[C@H]2[C@H](CO)O1)NCc1ccc(-c2ccccc2)cc1	17.8% (inactive)	
C[C@@H]1CN([C@H](C)CO)C(=O)c2cc(NC(=O)Nc3cccc4ccccc34)ccc2O[C@@H](C)CCCCO[C@H]1CN(C)S(=O)(=O)c1ccc(F)cc1	38% (inactive)	
C[C@@H]1CN([C@H](C)CO)C(=O)c2cc(NC(=O)Nc3ccc4c(c3)OCO4)ccc2O[C@@H](C)CCCCO[C@H]1CN(C)S(=O)(=O)c1ccc(F)cc1	13.1% (inactive)	
O=C(C[C@H]1C[C@@H]2c3cc(NC(=O)C4CCC4)ccc3O[C@@H]2[C@@H](CO)O1)NCc1ccc(Cl)cc1	-11.8% (inactive)	
C[C@H]1CN([C@@H](C)CO)C(=O)c2cccc(NC(=O)Nc3ccc(C(F)(F)F)cc3)c2O[C@H]1CN(C)S(=O)(=O)c1ccc(Cl)cc1	51.5% (inactive)	activity change, negative = inhibition (at 60 µM (top of the series)): 28.2% (inactive)
C[C@H](CO)N1C[C@H](C)[C@H](CN(C)Cc2ccc(F)cc2)Oc2ncc(-c3cc4ccccc4o3)cc2C1=O		activity change, negative = inhibition (at 135 µM (top of the series)): 52.5% (inactive)

SMILES	activity change, negative = inhibition (at 120 µM (top of the series))	also measured
C[C@@H]1CN([C@@H](C)CO)S(=O)(=O)c2ccc(C#CC3CCCCC3)cc2O[C@@H]1CN(C)Cc1cccnc1	13.1% (inactive)	
C[C@@H]1CCCCO[C@H](CN(C)C)[C@H](C)CN([C@H](C)CO)C(=O)c2cc(NC(=O)c3ccncc3)ccc2O1	45.3% (inactive)	
C[C@H](CO)N1C[C@H](C)[C@H](CN(C)Cc2ccc(Oc3ccccc3)cc2)Oc2ccc(NC(=O)C3CC3)cc2CC1=O	12.9% (inactive)	
C[C@@H]1CN([C@@H](C)CO)S(=O)(=O)c2ccc(/C=C/c3ccccc3)cc2O[C@H]1CN(C)C(=O)c1ccccc1	18.9% (inactive)	
COc1ccccc1S(=O)(=O)N(C)C[C@@H]1Oc2cc(/C=C/c3ccccc3)ccc2S(=O)(=O)N([C@@H](C)CO)C[C@H]1C	32.3% (inactive)	
C[C@@H]1CN([C@H](C)CO)S(=O)(=O)c2ccc(C3=CCCCC3)cc2O[C@H]1CN(C)Cc1ccccc1	12.5% (inactive)	
CC(C)CC#Cc1ccc2c(c1)O[C@H](CN(C)Cc1ccc(F)cc1)[C@H](C)CN([C@@H](C)CO)S2(=O)=O	34.5% (inactive)	
C[C@@H]1CN([C@H](C)CO)C(=O)Cc2cc(NC(=O)CCC(F)(F)F)ccc2O[C@H]1CN(C)Cc1ccc(Oc2ccccc2)cc1		activity change, negative = inhibition (at 135 µM (top of the series)): 25.5% (inactive)
C[C@@H]1CN([C@H](C)CO)C(=O)Cc2cc(NC(=O)C3CC3)ccc2O[C@H]1CN(C)C		activity change, negative = inhibition (at 135 µM (top of the series)): 32.9% (inactive)
C[C@H]1CN([C@@H](C)CO)C(=O)Cc2cc(NC(=O)CCCN(C)C)ccc2O[C@H]1CN(C)Cc1ccc(-c2ccccc2)cc1	20.8% (inactive)	
C[C@H](CO)N1C[C@H](C)[C@@H](CN(C)S(=O)(=O)c2ccc(Cl)cc2)Oc2c(NC(=O)Nc3ccc(C(F)(F)F)cc3)cccc2C1=O	61.8% (inactive)	activity change, negative = inhibition (at 60 µM (top of the series)): 25% (inactive)
CO[C@H]1CN(C)C(=O)c2cc(NC(=O)c3ccc(-c4ccccc4)cc3)ccc2OC[C@H](C)NC[C@@H]1C		activity change, negative = inhibition (at 135 µM (top of the series)): 34.1% (inactive)
COc1ccccc1C#Cc1ccc([C@H]2[C@@H](CO)N(C(=O)C3CC3)[C@H]2C#N)cc1	27.5% (inactive)	
CC(C)CC#Cc1ccc2c(c1)O[C@H](CN(C)Cc1ccccc1F)[C@H](C)CN([C@H](C)CO)S2(=O)=O	21.7% (inactive)	
Cc1ccc(-c2ccc3c(c2)O[C@@H](CN(C)Cc2ccncc2)[C@H](C)CN([C@@H](C)CO)S3(=O)=O)cc1	21.6% (inactive)	
C[C@@H]1CN([C@H](C)CO)S(=O)(=O)c2ccc(Br)cc2O[C@H]1CN(C)Cc1cccnc1	0.001% (inactive)	
C[C@@H]1CN([C@@H](C)CO)C(=O)Cc2cc(NC(=O)C3CCCCC3)ccc2O[C@@H]1CN(C)Cc1ccc(-c2ccccc2)cc1	19% (inactive)	
C[C@H](CO)N1C[C@H](C)[C@@H](CN(C)Cc2cccnc2)Oc2cc(C#CC3CCCCC3)ccc2S1(=O)=O	27.1% (inactive)	
C[C@@H]1CN([C@@H](C)CO)C(=O)c2cccc(NC(=O)Nc3ccc(C(F)(F)F)cc3)c2O[C@@H]1CN(C)S(=O)(=O)c1ccc(Cl)cc1	22.7% (inactive)	
